Source: patent US9610255B2, “Lycopene and resveratrol dietary supplement” (HSIEHS BIOTECH (SINGAPORE) PTE LTD, priority 2009, dated 2017)

Key:
[1] = human, in vivo, po
[2] = Di Mascio P., 1989; cited from earlier work
prostatic carcinoma = conditions: 47,000 participants over 6 years (Giovannucci, E., 1995); cited from earlier work
[3] = cited from earlier work
[4] = Distribution in the body after oral intake

In the case of CC(C)=CCC/C(C)=C/C=C/C(C)=C/C=C/C(C)=C/C=C/C=C(C)/C=C/C=C(C)/C=C/C=C(\C)CCC=C(C)C [lycopene], the “share of adsorbed compound that goes to the prostate and other internal organs” value [1] is listed as “over 90%”, the “activity in quenching oxygen-singlet among all carotenoids including β-carotene” value [2] is listed as “highest activity” and the “lowering of incidence of prostatic carcinoma in the lycopene group” value (prostatic carcinoma) is listed as “over 30%”. For the same molecule, the solubility in water [3] was “water-insoluble”.

In the case of Oc1ccc(/C=C/c2cc(O)cc(O)c2)cc1 [resveratrol], the “solubility in organic solvents such as ethanol and acetone” value [3] is listed as “soluble”, the solubility in water [3] is listed as “slightly soluble” and the “main distribution in the body” value [4] is listed as “heart, circulation system, along respiratory tract and skin”.
